Reference: patent publication US20140274978A1, “Phytosterol spirostane and spirostene derivatives having a wide variety of utilities in humans and other animals” (priority 2013, published 2014)
Like-named read-outs stand apart in the source and are kept apart here.

How the values were obtained:
[1] = Oral 5-androsten-3β,17β-diol-7-one diacetate with weight resistance training; type: in vivo, humans
Protocol: Human volunteers familiar with conventional anabolic steroids used 60 mg/day (20 mg tid) 5-androsten-3β,17β-diol-7-one diacetate orally, in conjunction with weight resistance training.

[2] = Topical lotion on severely atrophic skin of an elderly person; type: in vivo, humans; conditions: atrophic skin of hands; for skin elasticity and strength: after one month; for traumatic purpurra and venous lakes: two months
Text: Phytosterol derivative compounds of the present invention are also useful as skin agents for animals and useful as cosmetic agents when formulated in preparations which, when applied to the skin, create a penetrating flux that will deliver the compound to both the epidermis and dermis. The preferred lotion formulations are of low irritancy and are generally comprised of either a spirostane or a spirostene or, preferably for synergistic reasons, a combination of both [0.05-0.2% (w/w) combined in a ratio of 2:1 to 1:2] dissolved in a solution consisting of propylene glycol [50-70% (w/w)]. propylene carbonate [15-25% (w/w)], water [10-20% (w/w)], and glycerol [0.12.0% (w/w)]. The steroid solutions are most preferably formulated at 80-90% saturation.
The compounds of invention, when formulated as above, are useful for reversing many aspects of degenerative skin disorders (such as thin, fragile, inelastic skin and weakened dermal blood vessels) due to various causes such as aging or chronic corticosteroid therapy.

[3] = Synergy of 7-keto-diosgenin with laxogenin and/or 5-hydroxy laxogenin (inventor's finding); conditions: 1:1 ratio found effective
[4] = Physical stamina and endurance of hunting dogs; type: in vivo; conditions: 5-10 mg/day
Text: The compounds of invention are also useful for increasing physical stamina and endurance in young working and sporting dogs used for hunting, sled pulling and herding and dogs in competitions such as greyhound racing, field trials, agility, disc dog, dock jumping and Schutzhund.

[5] = Oral administration to older dogs (vigor, health); type: in vivo; conditions: for activity, stamina, appetite, stiffness, overall health reported by pet owners / lean muscle mass and body fat: dogs of 7-14 years of age; for activity, stamina, appetite, stiffness, overall health reported by pet owners: 1-10 mg/day in two divided doses; for lean muscle mass and body fat: over 2-3 months administration; for behavior of ailing dogs / age lived to: two Rhodesian Ridgeback dogs; for behavior of ailing dogs: age 13, failure to thrive; for age lived to: daily dosages from age 13
Text: Their appetite and activity increased, they became leaner—leaner muscle, wanted to go for walks and became like a new dog. They lived another 3 years on a daily dosages to age 16. Their treating Veterinarian said he had never seen dogs of their size and breed live to such an advanced age. Numerous similar reports were collected.
See Kokl. Akad. Nauk. Uzb., SSR, 1981, v.3, pp. 31-33. See also Farmakol. Toksikol., 1976, 39(5), pp. 631-35.

estrogen receptors = experiment: Competitive binding inhibition studies (Baylor University), estrogen receptors; conditions: even at the limits of compound solubility
Text: (§1) Consequently, the spirostane and spirostene compounds of the present invention are expected to be devoid of hormonal activity.

[6] = Life span of a Great Dane on daily administration; type: in vivo, dogs; conditions: 8 mg/day from age 8, upper limit for lineage 10 years
Protocol: The compounds of invention are also useful for lengthening the life span of various large breeds of dogs (and presumably small breeds). One Great Dane. given 25R-Spirostan-3B, 5α-diol-6-one daily (8 mg/day) from age 8 on. lived to be almost 13 years old. The dog had to be euthanized because it suffered from dysplasia in both hips; otherwise it was healthy and active. The upper limit of age for Great Danes of this lineage was previously considered to be 10 years.
A Great Dane that was given 25R-Spirostan-3B, 5α-diol-6-one daily (8 mg/day) from age 8 on lived to be almost 13 years old. The dog had to be euthanized because it suffered from dysplasia in both hips; otherwise it was healthy and active. The upper limit of age for Great Danes of this particular lineage was previously considered to be 10 years.

[7] = cited from earlier work
androgen receptors = target: T1, androgen receptors (Homo sapiens, UniProt P10275); experiment: Competitive binding inhibition studies (Baylor University), androgen receptors; conditions: even at the limits of compound solubility
T1 sequence (P10275 1-920): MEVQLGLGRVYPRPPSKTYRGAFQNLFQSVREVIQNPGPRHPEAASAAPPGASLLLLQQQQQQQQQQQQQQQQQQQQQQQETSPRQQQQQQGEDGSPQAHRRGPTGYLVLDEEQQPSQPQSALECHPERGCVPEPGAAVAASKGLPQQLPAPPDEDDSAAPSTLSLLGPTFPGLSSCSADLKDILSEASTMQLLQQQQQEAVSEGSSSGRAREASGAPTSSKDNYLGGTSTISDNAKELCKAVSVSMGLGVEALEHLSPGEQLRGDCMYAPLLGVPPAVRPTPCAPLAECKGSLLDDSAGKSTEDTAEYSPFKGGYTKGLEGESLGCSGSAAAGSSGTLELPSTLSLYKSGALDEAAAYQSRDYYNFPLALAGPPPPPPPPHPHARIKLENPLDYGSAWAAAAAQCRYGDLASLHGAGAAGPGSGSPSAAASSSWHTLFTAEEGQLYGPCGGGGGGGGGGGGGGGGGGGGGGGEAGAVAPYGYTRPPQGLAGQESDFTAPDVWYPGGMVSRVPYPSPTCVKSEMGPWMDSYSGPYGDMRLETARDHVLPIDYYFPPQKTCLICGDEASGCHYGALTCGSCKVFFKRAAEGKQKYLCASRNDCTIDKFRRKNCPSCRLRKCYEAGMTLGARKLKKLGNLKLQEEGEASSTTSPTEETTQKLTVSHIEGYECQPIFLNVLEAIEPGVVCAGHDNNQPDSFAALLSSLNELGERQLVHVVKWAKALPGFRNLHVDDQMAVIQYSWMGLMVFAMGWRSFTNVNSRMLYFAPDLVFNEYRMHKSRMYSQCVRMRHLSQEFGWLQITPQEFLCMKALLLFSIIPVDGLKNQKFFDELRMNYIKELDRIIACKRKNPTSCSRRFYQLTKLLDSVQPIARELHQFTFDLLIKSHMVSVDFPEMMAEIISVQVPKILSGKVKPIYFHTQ
Text: as §1

[8] = Oral administration to aging human volunteers (energy, stamina, sleep); type: in vivo, humans
Protocol: The spirostanic compounds of the invention are also useful in increasing and restoring health and vigor, useful in preventing fatigue, and useful in improving physical condition and performance and increasing work output in aging humans and other mammals. For example, 15 mg of 25R-Spirostan-3B, 5α-diol-6-one was given to a person in three divided doses per day (t.i.d.) for two weeks.
15 mg of 25R-Spirostan-3B, 5α-diol-6-one was given to a person in three divided doses per day (t.i.d.) for two weeks.

[9] = Laxogenin in a person with double knee replacement (pain, recovery); type: in vivo, humans
Protocol: The compounds of the present invention also have the ability to mediate and/or reduce pain in humans and other animals. A person received a double knee replacement due to long time injuries. They began taking 3 doses per day of Laxogenin at 150 mg per dose one week prior to knee surgery.

[10] = rat, in vivo, 25 mg/kg; cited from earlier work
[11] = 3 grams/day for 30 days, humans; cited from earlier work
[12] = labeled ecdysterone 50 mg/kg, mice; cited from earlier work
protein synthesis = conditions: cited from earlier work; for sensitivity of protein stimulation to actinomycin D: Russian report, Biol. Nauki 1984
[13] = 15 mg in three divided doses per day, two weeks, person

CC(=O)O[C@H]1CC[C@@]2(C)C(=CC(=O)[C@H]3[C@@H]4CC[C@H](OC(C)=O)[C@@]4(C)CC[C@@H]32)C1 [5-androsten-3β,17β-diol-7-one diacetate]
androgenic side-effects ([1]; 60 mg/day (20 mg tid) orally): No subject reported any noticeable androgenic side-effects | strength, endurance and muscle mass accretion ([1]; 60 mg/day (20 mg tid) orally with weight resistance training): increases in strength and endurance as well as accelerated increases in muscle mass accretion

C[C@@H]1CC[C@@]2(OC1)O[C@H]1C[C@H]3[C@@H]4C(=O)C=C5C[C@@H](O)CC[C@]5(C)[C@H]4CC[C@]3(C)[C@H]1[C@@H]2C [7-keto-diosgenin, 5,25R-spirosten-3β-ol-7-one]
skin elasticity and strength [2]: dramatic increases in skin elasticity and strength | traumatic purpurra and venous lakes [2]: Virtually all traumatic purpurra and venous lakes were resolved within two months | synergy with laxogenin and/or 5-hydroxy laxogenin [3]: unexpectedly synergistic | physical stamina and endurance [4]: noticeable improvement in their dogs physical stamina and endurance within one week | activity, stamina, appetite, stiffness, overall health reported by pet owners [5]: increased activity, playfulness, physical stamina, appetite and interaction with owners, reduced stiffness and weakness, and improved overall health | lean muscle mass and body fat [5]: increased many of the dogs' lean muscle mass while reducing body fat | behavior of ailing dogs [5]: started to exhibit puppy like behavior after 48 hours | age lived to [5]: 16

C[C@@H]1CC[C@@]2(OC1)O[C@H]1C[C@H]3[C@@H]4CC(=O)[C@@]5(O)C[C@@H](O)CC[C@]5(C)[C@H]4CC[C@]3(C)[C@H]1[C@@H]2C [25R-Spirostan-3B, 5α-diol-6-one, (25R)-spirostan-3β-5α-diol-6-one]
binding to estrogen receptors (estrogen receptors): did not bind | skin elasticity and strength [2]: dramatic increases in skin elasticity and strength | traumatic purpurra and venous lakes [2]: Virtually all traumatic purpurra and venous lakes were resolved within two months | physical stamina and endurance [4]: noticeable improvement in their dogs physical stamina and endurance within one week | activity, stamina, appetite, stiffness, overall health reported by pet owners [5]: increased activity, playfulness, physical stamina, appetite and interaction with owners, reduced stiffness and weakness, and improved overall health | lean muscle mass and body fat [5]: increased many of the dogs' lean muscle mass while reducing body fat | age lived to [6]: ~13 years | anabolic activity in older (mature) rats ([7]; older (i.e. mature) rats): reduced anabolic activity | anabolic activity in young rats ([7]; young rats): higher anabolic activity | binding to androgen receptors (androgen receptors): did not bind | length of time able to work in garden [8, 13]: 2-3 times | well-being, energy and physical stamina [8, 13]: overall increase in well-being, accompanied by a definite increase in energy and physical stamina | total sleep time ([8]; 60 mg/day, over one month, increased from 6 hrs/night): approximately 8 hrs/night | physical energy and stamina ([8]; 60 mg/day, person and person): definite increases in physical energy and stamina within one week

C[C@@H]1CC[C@@]2(OC1)O[C@H]1C[C@H]3[C@@H]4CC(=O)[C@H]5C[C@@H](O)CC[C@]5(C)[C@H]4CC[C@]3(C)[C@H]1[C@@H]2C [Laxogenin, (25R)-3β-hydroxy-5α-spirostan-6-one]
behavior of ailing dogs [5]: started to exhibit puppy like behavior after 48 hours | age lived to [5]: 16 | pain before surgery ([9]; 3 doses per day at 150 mg per dose, started one week prior to knee surgery): pain had diminished their third day | standing and walking ([9]; 7th day after surgery): could stand and walk far distances free of pain, stiffness and discomfort | need for morphine drip ([9]; day after operation): able to discontinue their morphine drip altogether | surface inflammation and scarring ([9]; liquid version applied topically): reduced surface inflammation and scarring greatly

C[C@@H]1CC[C@@]2(OC1)O[C@H]1C[C@H]3[C@@H]4CC=C5C[C@@H](O)CC[C@]5(C)[C@H]4CC[C@]3(C)[C@H]1[C@@H]2C [diosgenin]
serum half-life [10]: approximately 14 hours | metabolism in the B-ring [11]: not metabolized in the B-ring

CC(C)(O)CC[C@@H](O)[C@](C)(O)[C@H]1CC[C@@]2(O)C3=CC(=O)[C@@H]4C[C@@H](O)[C@@H](O)C[C@]4(C)[C@H]3CC[C@]12C [ecdysterone, 20-Hydroxyecdysone]
serum half-life [12]: 8.15 min | repression of induced protein synthesis by actinomycin D (protein synthesis; Japanese report, Chem. Pharm. Bull. 1969): partially repressed | sensitivity of protein stimulation to actinomycin D (protein synthesis): completely insensitive to actinomycin D

CC(C)(O)CC[C@@H](O)[C@](C)(O)[C@H]1CC[C@@]2(O)C3=CC(=O)[C@@H]4C[C@@H](O)[C@@H](O)C[C@]4(C)[C@H]3[C@H](O)C[C@]12C [turkesterone]
sensitivity of protein stimulation to actinomycin D (protein synthesis): completely insensitive to actinomycin D
